# Like-named read-outs stand apart in the source and are kept apart here.
# How the values were obtained:
# Jurkat cells = test: Proliferation of Jurkat cells with or without ionomycin; assay type: cell-based, human; conditions: for IC50: Homo sapiens, Jurkat cells, 48 hrs
# Procedure: FIG. 2. The Ca2+ ionophore ionomycin overcomes the inhibition of Ca2+ entry into and proliferation of Jurkat cells produced by TH-1177. Panel A. Ca2+ entry into Jurkat cells was determined as described in Materials and Methods. Ionomycin at the indicated concentrations was added at 30 s and the mitogenic monoclonal antibody (OKT3 was added at a concentration of 1 ug/ml at 60 s. Either EGTA at 2.5 mM or TH-1177 at the indicated concentrations was added at 150 s. The percentage inhibition was determined as described in Material and Methods. Panel B. Jurkat cells were grown for 48 hrs in the presence (open symbols) or absence (closed symbols) of 30 nM ionomycin and the indicated concentrations of TH-1177. Percent control growth was determined as described in Materials and Methods.
# (§1) LNCaP cells at 2.5×10^4 cells/well or PC-3 cells at 5×10^4 cells/well, both in a final volume of 100 IJI, were plated in triplicate in standard flat-bottomed 96-well tissue culture plates in the presence of drug or vehicle (DMSO). Unless otherwise indicated, cells were grown for 48 h at 37° C. in a CO2 incubator. Relative cell growth was determined with the CellTiter 96 aqueous cell proliferation assay (Promega, Madison, Wis.) as described by the manufacturer using an automated plate reader. Results were calculated in a blinded fashion and are the means of triplicate determinations.
# [1] = tested on: PC3 human prostate cancer cells; test: Proliferation of PC3 prostate cancer cells (CellTiter 96); assay type: cell-based; conditions: read-out: IC50 for inhibiting proliferation of PC3 prostate cancer cells
# Procedure: FIG. 5, TH-1177 and TH-1211 are stereoisomers about one of two chiral centers and have different potencies at inhibiting the proliferation of PC3 prostate cancer cells. Panel A: The structures of TH-1177 and TH-1211 were determined as described in Materials and Methods. The diastereomers are racemic at the benzhydrol center (solid arrows) and enantiomeric at the proline center (open arrows) with TH-1177 having the S configuration and TH-1211 having the R. Panel B: The proliferation of PC3 human prostate cancer cells was determined as described in Materials and Methods.
# as §1
# [2] = tested on: xenografted human PC3 prostate cancer cells; conditions: treatment with TH-1177; Haverstick et al. 2000; cited from earlier work
"IC50 (Jurkat cells; in the presence of 30 uM ionomycin, read-out: IC50 of TH-1177 for inhibition of proliferation, in the presence of ionomycin)","IC50 (Jurkat cells; ionomycin absent, read-out: IC50 of TH-1177 for inhibition of proliferation, in the absence of ionomycin)",IC50 [1],Compound,lifespan of mice bearing xenografted PC3 cells [2],effect on proliferation of ionomycin alone (Jurkat cells; 30 nM ionomycin alone)
4.6 µM,17.8 µM,14 µM,COc1ccc(CCN2CCCC2COC(c2ccccc2)c2ccc(Cl)cc2)cc1 (stereo not drawn) [TH-1177],significantly extended the lifespan,–
–,–,42 µM,COc1ccc(CCN2CCCC2COC(c2ccccc2)c2ccc(Cl)cc2)cc1 (stereo not drawn) [TH-1211],–,–
–,–,–,"C[C@H](CCC(=O)O)C[C@H](C)C[C@H](C)C(=O)/C=C(\O)[C@H](C)C[C@H](C)C/C=C/[C@@H](C)[C@@H](O)[C@@H](C)[C@@H](O)C[C@@H]1CC[C@@](C)([C@H]2CC[C@@](C)([C@@H](C)O)O2)O1 [ionomycin, reference compound]",–,no effect

# Source: US20120264804A1, “T TYPE CALCIUM CHANNEL BLOCKERS AND THE TREATMENT OF DISEASES” (University of Virginia Patent Foundation, priority 2004, published 2012)
